In patent US9856278B2, “Lysophosphatidylserine derivative” (THE UNIVERSITY OF TOKYO, priority 2014, dated 2018):
Where a name gives a salt, the structure may show the parent alone.

What was measured:
mouse GPR34 = target: T1, mouse GPR34 (Mus musculus, UniProt Q9R1K6); assay: TGFα cleavage assay, agonistic activity against GPR34; type: cell-based; conditions: HEK293 cells transfected with AP labeled TGFα and mouse GPR34; graded against EC50 of Reference Compound 1
T1 construct: expressed in transfected cells; host or cells: HEK293 cells, transient transfection with pCAGGS vector (LipofectAMINE 2000)
T1 sequence (Q9R1K6 whole entry): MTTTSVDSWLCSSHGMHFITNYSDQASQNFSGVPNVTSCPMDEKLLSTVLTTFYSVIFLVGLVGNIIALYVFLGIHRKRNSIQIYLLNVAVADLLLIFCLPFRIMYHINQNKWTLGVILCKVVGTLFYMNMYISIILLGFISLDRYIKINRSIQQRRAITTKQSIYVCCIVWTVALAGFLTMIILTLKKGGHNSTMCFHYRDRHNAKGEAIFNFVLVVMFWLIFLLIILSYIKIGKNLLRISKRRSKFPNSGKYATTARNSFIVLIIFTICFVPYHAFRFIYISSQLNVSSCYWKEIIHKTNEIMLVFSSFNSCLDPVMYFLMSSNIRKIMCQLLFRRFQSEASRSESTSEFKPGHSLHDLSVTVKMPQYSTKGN
Procedure: (§1) In a Dulbecco's modified Eagle's medium (DMEM) containing 10% bovine fetal calf serum (FCS), HEK293 cells were suspended to give a density of 2.0×10^5 cells/mL and seeded in 4 mL portions in 60 mm dishes. After 24-hr culture in the presence of 5% CO2, transfection with various expression vectors was performed using LipofectAMINE 2000 (Invitrogen). For each 60 mm dish, a plasmid vector for AP labeled TGFα was used in an amount of 1 μg and a pCAGGS plasmid vector for mouse GPR34, P2Y10 or GPR174 was also used in an amount of 1 μg. The plasmid vectors were provided by the methods disclosed in Patent Documents 2 and 5. It should be noted that the AP labeled TGFα is a protein having a human placental alkaline phosphatase fused to the N terminal of membrane-bound pro-TGFα, and a plasmid vector for the AP labeled TGFα can be prepared based on the disclosure of Tokumaru et al., J Cell Biol 151, 209-220 (2000). Twenty-four hours after transfection, cells were dissociated using trypsin/EDTA, resuspended in the culture broth to give a density of 2.0×10^4 cells/well, and seeded in a 96-well plate. In the case of stimulation with compounds, a Hank's balanced salt solution (HBSS, containing 5 mM HEPES) was used. After standing for 30 minutes, test compounds were added at varying concentrations, followed by standing for an additional one hour in the presence of 5% CO2. The 96-well plate was centrifuged (190×g, 3 min) and 80 μL of the supernatant was transferred to another 96-well plate. A reaction buffer (40 mM Tris-HCl (pH 9.5)) containing 10 mM p-nitrophenyl phosphate (p-NPP) was added in an amount of 80 μL to both the supernatant and the cells. After OD405 measurement with a microplate reader (background), heating was done at 37° C. for an hour and then another OD405 measurement was performed. For each well, the background was subtracted from the absorbance measured the second time and the result was fitted to the following formula to calculate AP activity.
Further, the values obtained by subtracting the AP activity (%) for the unstimulated group were plotted on the vertical axis to draw a graph.

mouse P2Y10 = target: T2, mouse P2Y10 (Mus musculus, UniProt Q8BFU7); assay: TGFα cleavage assay, agonistic activity against P2Y10; type: cell-based; conditions: for P2Y10/LPS2 agonistic activity: HEK293 cells transfected with AP labeled TGFα and mouse P2Y10, graded against EC50 of Reference Compound 1; for EC50: HEK293 cells, mouse P2Y10, AP-TGFα release, value in parentheses, read-out: P2Y10/LPS2 EC50; for selectivity for P2Y10: against GPR34 and GPR174, from Table 3
T2 construct: expressed in transfected cells; host or cells: HEK293 cells, transient transfection with pCAGGS vector (LipofectAMINE 2000)
T2 sequence (Q8BFU7 whole entry): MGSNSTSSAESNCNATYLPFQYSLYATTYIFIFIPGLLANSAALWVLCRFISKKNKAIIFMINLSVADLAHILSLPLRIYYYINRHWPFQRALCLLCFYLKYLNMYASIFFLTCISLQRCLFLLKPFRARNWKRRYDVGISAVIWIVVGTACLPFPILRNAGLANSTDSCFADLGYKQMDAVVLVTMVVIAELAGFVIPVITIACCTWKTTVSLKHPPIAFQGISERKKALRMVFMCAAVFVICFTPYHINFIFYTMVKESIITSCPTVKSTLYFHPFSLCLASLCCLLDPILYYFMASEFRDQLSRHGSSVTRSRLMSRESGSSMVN
Procedure: as §1
(§2) Further, the values obtained by subtracting the AP activity (%) for the unstimulated group were plotted on the vertical axis to draw a graph. […] The EC50 values of the respective compounds are also cited in parentheses.

mouse GPR174 = target: T3, mouse GPR174 (Mus musculus, UniProt Q3U507); assay: TGFα cleavage assay, agonistic activity against GPR174; type: cell-based; conditions: for GPR174/LPS3 agonistic activity: HEK293 cells transfected with AP labeled TGFα and mouse GPR174, graded against EC50 of Reference Compound 1; for EC50: HEK293 cells, mouse GPR174, AP-TGFα release, value in parentheses, read-out: GPR174/LPS3 EC50
T3 construct: expressed in transfected cells; host or cells: HEK293 cells, transient transfection with pCAGGS vector (LipofectAMINE 2000)
T3 sequence (Q3U507 whole entry): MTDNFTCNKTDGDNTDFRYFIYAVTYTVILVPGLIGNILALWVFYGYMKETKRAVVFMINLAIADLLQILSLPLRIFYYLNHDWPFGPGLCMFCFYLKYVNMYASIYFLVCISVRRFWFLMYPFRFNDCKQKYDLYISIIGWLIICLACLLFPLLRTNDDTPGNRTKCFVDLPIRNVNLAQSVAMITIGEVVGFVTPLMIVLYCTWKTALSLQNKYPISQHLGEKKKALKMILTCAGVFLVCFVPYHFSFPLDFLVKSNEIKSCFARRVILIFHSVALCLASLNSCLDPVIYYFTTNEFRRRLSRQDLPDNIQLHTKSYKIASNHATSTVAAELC
Procedure: as §1, §2

Row | Structure (SMILES) | melting point [°C] | GPR34/LPS1 agonistic activity (mouse GPR34) | P2Y10/LPS2 agonistic activity (mouse P2Y10) | GPR174/LPS3 agonistic activity (mouse GPR174) | EC50 (mouse P2Y10) [nM] | selectivity for P2Y10 (mouse P2Y10) | EC50 (mouse GPR174) [nM]
1 | N[C@@H](COP(=O)(O)OCc1cccc(OC(=O)CCc2ccccc2OCc2cccc(Oc3ccccc3)c2)c1)C(=O)O [Example 10, O-(hydroxy((3-((3-(2-((3-phenoxybenzyl)oxy)phenyl)propanoyl)oxy)benzyl)oxy)phosphoryl)-L-serine] |  | −~+ | ++ | +~++ |  |  | 
2 | CCCCCCCCCCCOc1ccccc1CCC(=O)OCc1cccc(OP(=O)(O)OC[C@H](N)C(=O)O)c1 [Example 6, O-(hydroxy(3-(((3-(2-(undecyloxy)phenyl)propanoyl)oxy)methyl)phenoxy)phosphoryl)-L-serine] |  | −~++ | ++++ | +~++ | 3.3 | agonists having selectivity for P2Y10 | 
3 | CCCCCCCCCCCOc1ccccc1CCC(=O)Oc1cccc(OP(=O)(O)OC[C@H](N)C(=O)O)c1 [Example 2, O-(hydroxy(3-((3-(2-(undecyloxy)phenyl)propanoyl)oxy)phenoxy)phosphoryl)-L-serine] |  | − | +++~++++ | − | 14 | agonists having selectivity for P2Y10 | 
4 | CCCCCCCCCCCOc1ccccc1CCC(=O)Oc1ccc(OP(=O)(O)OC[C@H](N)C(=O)O)cc1 [Example 3, O-(hydroxy(4-((3-(2-(undecyloxy)phenyl)propanoyl)oxy)phenoxy)phosphoryl)-L-serine] |  | − | +++~++++ | +~++ | 7 | agonists having selectivity for P2Y10 | 340
5 | CCCCCCCC/C=C\CCCCCCCC(=O)OC[C@@H](O)COP(=O)(O)OC[C@H](N)C(=O)O [compound 1, reference compound] |  | +++ | +++ | +++ | 8.3 |  | 81
6 | N[C@@H](COP(=O)(O)Oc1cccc(COC(=O)CCc2ccccc2OCc2cccc(Oc3ccccc3)c2)c1)C(=O)O (as salt: TFA) [Example 7, O-(hydroxy(3-(((3-(2-((3-phenoxybenzyl)oxy)phenyl)propanoyl)oxy)methyl)phenoxy)phosphoryl)-L-serine] | 175 to 185 |  |  |  |  |  | 
7 | CCCCCCCCCCCOc1ccccc1CCC(=O)Oc1ccc(OP(=O)(O)OC[C@H](N)C(=O)O)cc1 (as salt: salt) [Example 3, O-(hydroxy(4-((3-(2-(undecyloxy)phenyl)propanoyl)oxy)phenoxy)phosphoryl)-L-serine] | 140.5 to 142 |  |  |  |  |  | 
8 | CCCCCCCCCCCOc1ccccc1CCC(=O)Oc1cccc(COP(=O)(O)OC[C@H](N)C(=O)O)c1 [Example 9, O-(hydroxy((3-((3-(2-(undecyloxy)phenyl)propanoyl)oxy)benzyl)oxy)phosphoryl)-L-serine] |  | − | +++ | − | 30 | agonists having selectivity for P2Y10 | 
9 | N[C@@H](COP(=O)(O)Oc1cccc(COC(=O)CCc2ccccc2OCc2cccc(Oc3ccccc3)c2)c1)C(=O)O [Example 7, O-(hydroxy(3-(((3-(2-((3-phenoxybenzyl)oxy)phenyl)propanoyl)oxy)methyl)phenoxy)phosphoryl)-L-serine] |  | − | ++~+++ | −~+ | 31 | agonists having selectivity for P2Y10 | 
10 | CCCCCCCCCCCOc1ccccc1CCC(=O)OCC#CCOP(=O)(O)OC[C@H](N)C(=O)O [Example 12, O-(hydroxy((4-((3-(2-(undecyloxy)phenyl)propanoyl)oxy)but-2-yn-1-yl)oxy)phosphoryl)-L-serine] |  | − | ++++~+++++ | + | 1.5 | agonists having selectivity for P2Y10 | 
11 | CCCCCCCCCCCOc1ccccc1CCC(=O)OCc1ccccc1OP(=O)(O)OC[C@H](N)C(=O)O [Example 4, O-(hydroxy(2-(((3-(2-(undecyloxy)phenyl)propanoyl)oxy)methyl)phenoxy)phosphoryl)-L-serine] |  | +++ | ++ | + |  |  | 
12 | CCCCCCCCCCCOc1ccccc1CCC(=O)Oc1cccc(OP(=O)(O)OC[C@H](N)C(=O)O)c1 (as salt: salt) [Example 2, O-(hydroxy(3-((3-(2-(undecyloxy)phenyl)propanoyl)oxy)phenoxy)phosphoryl)-L-serine] | 123 to 126.5 |  |  |  |  |  | 

Now from value to compound, other results behind:

Row | melting point [°C] | Structure (SMILES) | GPR34/LPS1 agonistic activity (mouse GPR34) | P2Y10/LPS2 agonistic activity (mouse P2Y10) | GPR174/LPS3 agonistic activity (mouse GPR174) | EC50 (mouse P2Y10) [nM] | selectivity for P2Y10 (mouse P2Y10) | EC50 (mouse GPR174) [nM]
13 | 111.1 to 112.5 | CC(C)(C)c1ccc(Oc2cccc(COc3ccccc3CCC(=O)O)c2)cc1 [Example 42, 3-(2-((3-(4-(tert-butyl)phenoxy)benzyl)oxy)phenyl)propanoic acid] |  |  |  |  |  | 
14 | 87.8 to 88.8 | O=C(O)CCc1ccccc1OCc1cccc(-c2ccccc2)c1 [Example 47, 3-(2-([1,1′-biphenyl]-3-ylmethoxy)phenyl)propanoic acid] |  |  |  |  |  | 
15 | 104.5 to 106 | Cc1ccc(Oc2cccc(COc3ccccc3CCC(=O)O)c2)cc1 [Example 33, 3-(2-((3-(p-tolyloxy)benzyl)oxy)phenyl)propanoic acid] |  |  |  |  |  | 
16 | 117.5 to 120 | Cc1cccc(C)c1-c1cccc(COc2ccccc2CCC(=O)O)c1 [Example 36, 3-(2-((2′,6′-dimethyl[1,1′-biphenyl]-3-yl)methoxy)phenyl)propanoic acid] |  |  |  |  |  | 
17 | 90 to 91 | O=C(O)CCc1cccc(OCc2cccc(-c3ccccc3)c2)c1 [Example 48, 3-(3-([1,1′-biphenyl]-3-ylmethoxy)phenyl)propanoic acid] |  |  |  |  |  | 
18 | 184 to 193 | CCCCCCCCCCCOc1ccccc1CCC(=O)OCc1ccc(OP(=O)(O)OC[C@H](N)C(=O)O)cc1 (as salt: TFA) |  |  |  |  |  | 
